Data published in patent publication EP0845034B1, “PEPTIDE HAVING PRONOCICEPTIVE PROPERTIES” (Euroscreen S.A., priority 1995, dated 1997).
Where a name gives a salt, the structure may show the parent alone.

Key:
mice [1] = experiment: antagonism of nociceptin-induced stimulation of horizontal locomotor activity; format: in vivo
mice [2] = conditions: mouse, in vivo

Compound: C=CCN1CC[C@]23c4c5ccc(O)c4O[C@H]2C(=O)CC[C@@]3(O)[C@H]1C5 [Naloxone, Naloxone hydrochloride]
- effect on motor-stimulant effect of nociceptin (mice [1]; 0.0-4.5 mg/kg s.c., 10 minutes before i.c.v. 100 ng nociceptin, first 10 minutes of testing): did not suppress

Compound: O=C(CCCN1CCC(O)(c2ccc(Cl)cc2)CC1)c1ccc(F)cc1 [haloperidol]
- effect on nociceptin-induced stimulation of locomotor activity (mice [1]; increasing doses of D2 dopamine receptor antagonist pretreatment): antagonized

Compound: CN1CC[C@]23c4c5ccc(O)c4O[C@H]2[C@@H](O)C=C[C@H]3[C@H]1C5 [morphin]
- number of explored holes (mice [2]): 24 ± 2
